Results published in patent publication EP0882015B1, “DIPHENYL STILBENES AS PRODRUGS TO COX-2 INHIBITORS” (Merck Frosst Canada & Co., priority 1996, dated 1997).

Assay: Rat plasma levels, per os pharmacokinetics in rats (conversion of prodrug to active COX-2 inhibitor)
Format: in vivo, Male Sprague Dawley rats
Details: maximum plasma concentration of the corresponding lactone (active COX-2 inhibitor) observed in rats dosed at 20 mg/kg orally with the indicated prodrug
Description: The animals are housed, fed and cared for according to the Guidelines of the Canadian Council on Animal Care.
Male Sprague Dawley rats (325-375 g) are fasted overnight prior to each PO blood level study.
The rats are placed in the restrainer one at a time and the box is firmly secured. The zero blood sample is obtained by nicking a small (1 mm or less) piece off the tip of the tail. The tail is then stroked with a firm but gentle motion from the top to the bottom to milk out the blood. Approximately 1 mL of blood is collected into a heparinized vacutainer tube.
Compounds are prepared as required, in a standard dosing volume of 10mL/kg, and administered orally by passing a 16 gauge, 3" gavaging needle into the stomach.
Subsequent bleeds are taken in the same manner as the zero bleed except that there is no need to nick the tail again. The tail is cleaned with a piece of gauze and milked/stroked as described above into the appropriately labelled tubes.
Immediately after sampling, blood is centrifuged, separated, put into clearly marked vials and stored in a freezer until analysed. […]
For analysis, aliquots are diluted with an equal volume of acetonitrile and centrifuged to remove protein precipitate. […] Quantitation is done relative to a clean blood sample spiked with a known quantity of drug. […]

Plasma Levels: 1000 nM
Structure (SMILES): COC(=O)/C(=C(\C)c1ccc(S(C)(=O)=O)cc1)c1ccccc1 [Example 1, (E)-3-(4-Methylsulfonyl)phenyl-2-phenylbut-2-enoic acid methyl ester]
